What was measured:
Type in all cases: cell-based
TNFα mRNA = assay: Quantitative RT-PCR of TNFα mRNA; conditions: SKOV3 cells, 1 μM and 3 μM, 4-24 hours, normalized to GAPDH; maximal at 24 hours
Procedure: (§1) Figure 5 SW IV-134 induces activation of the TNFα-dependent extrinsic death pathway. (A) Quantitative real-time PCR analysis of TNFα mRNA expression was done on RNA samples derived from SKOV3 cells treated with SW IV-134 (1 μM and 3 μM) for indicated time periods. All values were normalized to a GAPDH internal control (p < 0.0001, one-way ANOVA). (B) SKOV3 cells were treated with SW IV-134 (1 μM and 3 μM) and cell-culture supernatants were collected at 4, 12, and 24 hours after treatment, and subsequently examined by anti-TNFα ELISA according to manufacturer’s instructions (p < 0.0001, one-way ANOVA). (C) SKOV3 cells were treated with SW IV-134 at indicated doses either alone or in the presence of anti-TNFα blocking antibody for 18 hours. Cell viability was determined as described in the experimental methods (p < 0.019, Student’s t-test).
SKOV3 cells were treated with SW IV-134 (1 μM, 3 μM) or vehicle-control for 4 hours, 12 hours, and 24 hours. At the end of each treatment, cells were harvested and total RNA was isolated using TRIzol reagent (Invitrogen, Grand Island, NY) and RT-PCR performed as per the protocol described before. Briefly, one microgram of RNA from each sample was reverse transcribed to cDNA with Retroscript (Ambion, Austin, TX). […] TNFα data were normalized for expression with GAPDH, and results were expressed as fold change over untreated controls.

TNFα = TNFα ELISA of cell culture supernatants; conditions: SKOV3 conditioned medium, 1 μM and 3 μM
Procedure: as §1
SKOV3 cells were treated with SW IV-134 (1 μM and 3 μM). Cell culture supernatants were collected at 4, 12, and 24 hours after treatment. Medium was collected, floating cells were removed by centrifugation at 1200 × g for 5 minutes, and samples were frozen at -20°C until analysis. TNFα ELISA was performed using a quantitative high sensitivity sandwich immunoassay from eBioscience (San Diego, CA) as per the manufacturer’s instructions.

SKOV3 cells = assay: SKOV3 cell viability (CellTiter-Glo) with SW IV-134 alone or with pathway blockers
Procedure: Figure 3 Treatment with SW IV-134 results in caspase-mediated cell death. (A) Cells were treated with vehicle only (Ctrl.), SW43 (10 μM), and SW IV-134 (10 μM) for 24 hours. Cell lysates were subjected to Western blot analysis, and probed with antibodies specific for the precursors and activated forms of caspases 8, 9, and 3. (B) SKOV3 cells were treated with SW IV-134 at indicated doses either alone or in the presence of the pan-caspase inhibitor Z-VAD-FMK (20 μM) for 18 hours. Cell viability was determined by CellTiter-Glo assays (p < 0.018, Student’s t-test).
Figure 4 SW IV-134 engages in SMAC-dependent pathway activation. (A) SKOV3 cells were treated with vehicle only (Ctrl.), SW43 (10 μM), and SW IV-134 (10 μM) for 4 hours and cell lysates were subjected to Western blot analysis using antibodies against XIAP, cIAP-1, cIAP-2, NF-қB and NIK. While XIAP seems unaffected under the conditions used, cIAP-1 and cIAP-2 proteins are readily undetectable shortly post treatment. SW IV-134 treatment also leads to accumulation of NF-қB inducing kinase (NIK) and activation of NF-қB pathway. (B) SKOV3 cells were treated with SW IV-134 at the indicated doses either alone or in the presence of proteasome inhibitor MG132 (20 μM) for 18 hours. […] Cell viability was determined as described in the experimental methods (p < 0.011, Student’s t-test).
Figure 5 SW IV-134 induces activation of the TNFα-dependent extrinsic death pathway. (A) Quantitative real-time PCR analysis of TNFα mRNA expression was done on RNA samples derived from SKOV3 cells treated with SW IV-134 (1 μM and 3 μM) for indicated time periods. All values were normalized to a GAPDH internal control (p < 0.0001, one-way ANOVA). […] Cell viability was determined as described in the experimental methods (p < 0.019, Student’s t-test).
Cells (1 × 10^4) were seeded into 96 well plates. […] Cell viability was determined 18 hours after treatment using CellTiter-Glo Luminiscent Viability Assay (Promega, Madison, WI). Data were recorded with a SpectraMax Gemini microplate spectrofluorometer, Molecular Devices (Silicon Valley, CA).

Hey A8 cells = assay: Caspase-Glo caspase 3, 8 and 9 activity in Hey A8 cells; conditions: 24 hours
Procedure: Caspase 3, 8 and 9 activities were measured using Caspase-Glo® Assay Systems according to the manufacturer’s instructions (Promega, Madison, WI). Briefly, the assay systems are based on caspase-specific substrates, which are activated by cleavage, resulting in caspase specific luminescence signals. HeyA8 cells were plated at a density of 1 × 10^4 in white 96 well, clear bottom plates for 24 hours before treatment. Cells were treated with different concentrations of SW IV-134. Caspase 3, 8 and 9 assays were performed by adding 100 μl of caspase reagents to each well. The contents were mixed using a plate shaker for 30 seconds and incubated at room temperature for 90 minutes. Luminescence signal was measured using a multi-mode microplate reader (BioTek, Winooski, VT).
Supplementary file 1476-4598-13-50-S3.pdf: Additional file 3: Figure S2 SW IV-134 induces caspase activation in ovarian cancer. Caspase 3, 8 and 9 activities were measured in Hey A8 cells using Caspase-Glo® Assay Systems (Promega). Hey A8 cells were treated with SW IV-134 at indicated drug concentrations for 24 hours. Caspase assays were performed by adding 100 μl lysis buffer containing the substrates for the respective caspase to be assayed. Luminescence signal intensities were recorded using a multi-mode microplate reader (BioTek). […] (A) caspase 8; (B) caspase 9; and (C) caspase 3. p < 0.001 for all analyses, one-way ANOVA. […]

Which results are given for COc1ccc(C)cc1NC(=O)OC1CC2CCCC(C1)N2CCCCCCCCCCN[C@@H](C)C(=O)N[C@H](C(=O)N1CCC[C@H]1C(=O)N[C@@H]1CCCc2ccccc21)C(C)(C)C (some centres unmarked) [SW IV-134]?
Increase in TNFα mRNA levels compared to untreated cells (TNFα mRNA): 20-50 fold; TNFα protein secretion (TNFα; 4 hours): undetectable; TNFα protein secretion (TNFα; 12 hours): mildly elevated; TNFα protein secretion (TNFα; 24 hours): highest levels; Cell death induced by SW IV-134 in the presence of TNFα-blocking antibody (SKOV3 cells; SKOV3, 18 hours): significant protection from cell death; SW IV-134 mediated cell death in the presence of proteasome inhibitor MG132 (SKOV3 cells; SKOV3, MG132 20 μM, 18 hours): significantly reduced; SW IV-134 induced cell death in the presence of pan-caspase inhibitor Z-VAD-FMK (SKOV3 cells; SKOV3, Z-VAD-FMK 20 μM, 18 hours): significantly reduced; Caspase 3, 8 and 9 activities (fold over DMSO control) (Hey A8 cells): significant increases in caspase activities

— publication PMC4015918, “Conjugation to a SMAC mimetic potentiates sigma-2 ligand induced tumor cell death in ovarian cancer” (Molecular Cancer, 2014)
